According to patent publication US20250376711A1, “COMPOUND-DIAGNOSTIC MARKER FOR UTERINE BODY CANCER, METHOD FOR DETECTING ENZYMATIC ACTIVITY, METHOD FOR DIAGNOSIS OF UTERINE BODY CANCER, KIT COMPRISING THE COMPOUND, USES OF THE COMPOUND AND METHOD FOR THE TREATMENT OF UTERINE BODY CANCER” (URTESTE S.A., priority 2022, published 2025):
Where “and” joins values, the source holds several entries; their conditions need not be identical. Identical values can stand only once. Starred links: 1 amine or outer side, 2 acyl side, 3 side chain; linkers in the order of their positions; H or OH if unused. Non-standard residues stand in square brackets, D forms with d. No end group written: not given here. Benzoyl(5-NH,2-NO2) = O=C(c1cc(N[*:1])ccc1[N+](=O)[O-])[*:2]; 2Abz = Nc1ccccc1C(=O)O

Assays:
Type in all cases: biochemical, human
[1] = test system: enzyme(s) in the studied material (urine); assay: Dependence of the hydrolysis level of the substrate on pH; settings: FIG. 4
Description: Furthermore, measurements concerning the dependence of the proteolytic activity of the representative compound according to the invention on the reaction pH were performed.

[2] = test system: enzymatic (proteolytic) activity in urine from subjects diagnosed with uterine body cancer; assay: Hydrolysis of the chromogenic substrate in urine from subjects with uterine body cancer (absorbance at 405 nm); parameters: Results of absorbance analysis (rate of hydrolysis of the substrate): unit not given here; settings: for Results of absorbance analysis (rate of hydrolysis of the substrate): 405 nm, 37° C., 60 minutes, Tris-HCl pH 8.0, triplicate
Description: (§1) The activity of the novel compounds according to the invention was studied in a group of 20 subjects diagnosed with uterine body cancer using the representative compound according to the invention. […] The remaining compounds according to the invention are characterized by the analogous mechanism of action. For this purpose, the representative compound according to the invention, ABZ^1-Pro^2-Arg^3-Thr^4-Ile^5-ANB^6-NH2, was dissolved in dimethyl sulfoxide (at a concentration of 0.5 mg/mL) and then 50 μL of the solution was mixed with 120 μL of a buffer (200 mM Tris-HCl, pH 8.0) and 80 μL of urine from a subject suffering from uterine body cancer. The measurement was performed on a 96-well plate designed for measuring absorbance and each sample was analysed in triplicate at the temperature of 37° C. The duration of the measurement was 60 minutes. During the measurement, the wavelength characteristic for the chromophore (ANB-NH2) being released was monitored at the wavelength 405 nm (range 380-430 nm).
The observed magnitude of increase in absorbance in time is different for each of the examined samples. […] Such a result may be due to the difference in the activity as well as the amount of enzymes responsible for the enzymatic cleavage (proteolysis). […] The result indicates the […] of proteolytic enzymes specific/characteristic of uterine body cancer.

[3] = test system: enzymatic activity in samples from patients with bladder cancer; assay: Selectivity of the cleavage: urine, bladder cancer; settings: mixture of 20 samples
Source text: (§2) Arabic numerals indicate the numbers of given cancer types. The samples tested for each type of cancer were derived from 20 different patients for each of the tested cancers. The results are mean values for given cancer types.
as §1
(§3) Furthermore, the dependence of the cleavage selectivity of the substrate, i.e. the compound according to the invention, on the cancer being examined, was studied. […]

[4] = test system: enzymatic activity in urine from patients with ovary cancer; assay: Selectivity of the cleavage: urine, ovary cancer; settings: samples from patients with ovary cancer, mixture of 20 samples
Source text: as §2, §1, §3

[5] = test system: enzymatic activity in urine from patients with prostate cancer; assay: Selectivity of the cleavage: urine, prostate cancer; settings: samples from patients with prostate cancer, mixture of 20 samples
Source text: as §2, §1, §3

[6] = test system: enzymatic activity in urine from patients with pancreas cancer; assay: Selectivity of the cleavage: urine, pancreas cancer; settings: samples from patients with pancreas cancer, mixture of 20 samples
Source text: as §2, §1, §3

[7] = test system: enzymatic (proteolytic) activity in urine from healthy subjects; assay: Hydrolysis of the chromogenic substrate in urine from healthy subjects (absorbance at 405 nm); settings: for Results of absorbance analysis (rate of hydrolysis of the substrate): 405 nm, 37° C., 60 minutes, Tris-HCl pH 8.0, triplicate
[8] = test system: enzymatic activity in urine from patients with liver cancer; assay: Selectivity of the cleavage: urine, liver cancer; settings: samples from patients with liver cancer, mixture of 20 samples
Source text: as §2, §1, §3

[9] = test system: enzymatic activity in urine from patients with kidney cancer; assay: Selectivity of the cleavage: urine, kidney cancer; settings: samples from patients with kidney cancer, mixture of 20 samples
Source text: as §2, §1, §3

[10] = test system: enzymatic activity in urine from a person diagnosed with uterine body cancer; assay: RP HPLC analysis of substrate cleavage in urine from a person with uterine body cancer; settings: randomly selected urine from a person diagnosed with uterine body cancer
[11] = test system: enzymatic activity in urine from patients with stomach cancer; assay: Selectivity of the cleavage: urine, stomach cancer; settings: samples from patients with stomach cancer, mixture of 20 samples
Source text: as §2, §1, §3

[12] = test system: enzymatic activity in urine from patients with lung cancer; assay: Selectivity of the cleavage: urine, lung cancer; settings: samples from patients with lung cancer, mixture of 20 samples
Source text: as §2, §1, §3

In the case of “ABZ-Pro-Arg-Thr-Ile-ANB-NH2 ([2Abz]PRTI-{Benzoyl(5-NH,2-NO2)-NH2})”, the “dependence of the hydrolysis of the substrate on the reaction pH” value [1] is reported as “maximum activity at alkaline pH”, the “colour intensity of the solution (absorbance) over time” value ([2]; all urine samples from persons diagnosed with uterine body cancer (T1-T20)) is reported as “increased with time” and the “Results of absorbance analysis (rate of hydrolysis of the substrate)” value (“Results of absorbance analysis” for short) ([2]; urine sample T1, uterine body cancer) is reported as 0.0066 and 0.006 and 0.0065. For the same substance, the “Results of absorbance analysis” value ([2]; urine sample T2, uterine body cancer) was 0.052 and 0.042 and 0.051, the “Results of absorbance analysis” value ([2]; urine sample T3, uterine body cancer) was 0.0087 and 0.0088 and 0.0086 and the “Results of absorbance analysis” value ([2]; urine sample T4, uterine body cancer) was 0.0069 and 0.0051 and 0.0067. For the same substance, the “Results of absorbance analysis” value ([2]; urine sample T5, uterine body cancer) was 0.044 and 0.038 and 0.042, the “Results of absorbance analysis” value ([2]; urine sample T6, uterine body cancer) was 0.037 and 0.022 and 0.028 and the “Results of absorbance analysis” value ([2]; urine sample T8, uterine body cancer) was 0.014 and 0.022 and 0.015. The “Results of absorbance analysis” value ([2]; urine sample T9, uterine body cancer) was 0.0088 and 0.0101 and 0.0092, the “Results of absorbance analysis” value ([2]; urine sample T10, uterine body cancer) was 0.009 and 0.0093 and 0.0085 and the “Results of absorbance analysis” value ([2]; urine sample T11, uterine body cancer) was 0.0123 and 0.0112 and 0.0145. For the same substance, the “Results of absorbance analysis” value ([2]; urine sample T12, uterine body cancer) was 0.0216 and 0.021 and 0.0199, the “Results of absorbance analysis” value ([2]; urine sample T13, uterine body cancer) was 0.0045 and 0.0052 and 0.0048 and the “Results of absorbance analysis” value ([2]; urine sample T14, uterine body cancer) was 0.005 and 0.0061 and 0.0058. The “Results of absorbance analysis” value ([2]; urine sample T15, uterine body cancer) was 0.0017 and 0.0015 and 0.0021, the “Results of absorbance analysis” value ([2]; urine sample T16, uterine body cancer) was 0.0079 and 0.0084 and 0.0072 and the “Results of absorbance analysis” value ([2]; urine sample T18, uterine body cancer) was 0.0073 and 0.0068 and 0.0075. The “Results of absorbance analysis” value ([2]; urine sample T19, uterine body cancer) was 0.055 and 0.051 and 0.048, the “Results of absorbance analysis” value ([2]; urine sample T20, uterine body cancer) was 0.0077 and 0.0075 and 0.0081 and the “cleavage of the substrate / increase in absorbance” value [3] was “is not subject to cleavage”. For the same substance, the “cleavage of the substrate / increase in absorbance” value [4] was “is not subject to cleavage”, the “cleavage of the substrate / increase in absorbance” value [5] was “is not subject to cleavage” and the “cleavage of the substrate / increase in absorbance” value [6] was “is not subject to cleavage”. For the same substance, the “increase in absorbance within the diagnostic range” value ([7]; 20 urine samples from healthy subjects) was “no increase in absorbance”, the “Results of absorbance analysis” value ([7]; urine sample 21, healthy subject) was 0.000000 and the “Results of absorbance analysis” value ([7]; urine sample 22, healthy subject) was 0.000000. For the same substance, the “Results of absorbance analysis” value ([7]; urine sample 23, healthy subject) was 0.000000, the “Results of absorbance analysis” value ([7]; urine sample 24, healthy subject) was 0.000000 and the “Results of absorbance analysis” value ([7]; urine sample 25, healthy subject) was 0.000000. For the same substance, the “Results of absorbance analysis” value ([7]; urine sample 26, healthy subject) was 0.000000, the “Results of absorbance analysis” value ([7]; urine sample 27, healthy subject) was 0.000000 and the “Results of absorbance analysis” value ([7]; urine sample 28, healthy subject) was 0.000000. For the same substance, the “Results of absorbance analysis” value ([7]; urine sample 29, healthy subject) was 0.000000, the “Results of absorbance analysis” value ([7]; urine sample 30, healthy subject) was 0.000000 and the “Results of absorbance analysis” value ([7]; urine sample 31, healthy subject) was 0.000000. For the same substance, the “Results of absorbance analysis” value ([7]; urine sample 32, healthy subject) was 0.000000, the “Results of absorbance analysis” value ([7]; urine sample 33, healthy subject) was 0.000000 and the “Results of absorbance analysis” value ([7]; urine sample 34, healthy subject) was 0.000000. For the same substance, the “Results of absorbance analysis” value ([7]; urine sample 35, healthy subject) was 0.000000, the “Results of absorbance analysis” value ([7]; urine sample 36, healthy subject) was 0.000000 and the “Results of absorbance analysis” value ([7]; urine sample 37, healthy subject) was 0.000000. The “Results of absorbance analysis” value ([7]; urine sample 38, healthy subject) was 0.000000, the “Results of absorbance analysis” value ([7]; urine sample 39, healthy subject) was 0.000000 and the “Results of absorbance analysis” value ([7]; urine sample 40, healthy subject) was 0.000000. For the same substance, the “cleavage of the substrate / increase in absorbance” value [8] was “is not subject to cleavage”, the “cleavage of the substrate / increase in absorbance” value [9] was “is not subject to cleavage” and the “cleavage products of the substrate (RP HPLC)” value [10] was “cleaves into the peptide fragment ABZ-Pro-Arg-Thr-Ile-OH and the chromophore group of the compound (ANB-NH2)”. For the same substance, the “cleavage of the substrate / increase in absorbance” value [11] was “is not subject to cleavage” and the “cleavage of the substrate / increase in absorbance” value [12] was “is not subject to cleavage”.
